Measurements from patent US20100035867A1 (priority 2006, published 2010).
Values joined by “and” are separate entries in the source; they are usually repeats but may differ in a detail not shown here. Identical values can stand only once.

How the values were obtained:
T84 cells [1] = experiment: STa-induced chloride transport in T84 cells (SPQ); type: cell-based, human; details: increasing STa concentrations, 50 μM compound
Procedure: The chloride transport assay was performed by a method known in the art (West, M. R.; Molloy, C. R., A microplate assay measuring chloride ion channel activity. Anal Biochem 1996, 241, (1), 51-8). In some experiments, MQAE was used as a fluorescent sensor for chloride anions and in other experiments, SPQ was used to detect chloride efflux from T84 cells.
This experiment followed the protocol described in Examples 2 and 10. SPQ was used to detect chloride efflux from T84 cells.

[2] = molecular target: anthrax edema toxin (protective antigen and edema factor) (Bacillus anthracis, UniProt P40136); type: cell-based
[3] = molecular target: T1, soluble guanylyl cyclase (sGC) (Rattus norvegicus, UniProt P19686+P20595); experiment: Nitric oxide donor-induced cyclic GMP accumulation in RFL-6 fibroblast cells; details: RFL-6 cells, 10 μM benzotrifuroxan, 50 μM compound
T1 sequence (P20595 1-619): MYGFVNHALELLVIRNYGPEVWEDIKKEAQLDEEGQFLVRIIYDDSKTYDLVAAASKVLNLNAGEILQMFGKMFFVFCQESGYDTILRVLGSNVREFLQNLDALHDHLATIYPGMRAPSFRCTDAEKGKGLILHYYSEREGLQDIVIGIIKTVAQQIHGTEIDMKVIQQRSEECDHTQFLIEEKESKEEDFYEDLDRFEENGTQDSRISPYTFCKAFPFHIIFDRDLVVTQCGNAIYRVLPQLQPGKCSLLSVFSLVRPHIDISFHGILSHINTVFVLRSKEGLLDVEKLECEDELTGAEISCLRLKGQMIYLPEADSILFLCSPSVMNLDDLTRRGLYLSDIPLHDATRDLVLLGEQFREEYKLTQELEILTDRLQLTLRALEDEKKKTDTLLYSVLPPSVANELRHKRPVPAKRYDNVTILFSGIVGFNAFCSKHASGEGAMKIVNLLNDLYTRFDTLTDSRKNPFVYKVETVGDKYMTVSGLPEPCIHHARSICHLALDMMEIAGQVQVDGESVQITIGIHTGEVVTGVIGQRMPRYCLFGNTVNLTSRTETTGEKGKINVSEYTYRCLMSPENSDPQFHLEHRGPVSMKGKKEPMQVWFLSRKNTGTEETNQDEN
T1 sequence (P19686 1-690): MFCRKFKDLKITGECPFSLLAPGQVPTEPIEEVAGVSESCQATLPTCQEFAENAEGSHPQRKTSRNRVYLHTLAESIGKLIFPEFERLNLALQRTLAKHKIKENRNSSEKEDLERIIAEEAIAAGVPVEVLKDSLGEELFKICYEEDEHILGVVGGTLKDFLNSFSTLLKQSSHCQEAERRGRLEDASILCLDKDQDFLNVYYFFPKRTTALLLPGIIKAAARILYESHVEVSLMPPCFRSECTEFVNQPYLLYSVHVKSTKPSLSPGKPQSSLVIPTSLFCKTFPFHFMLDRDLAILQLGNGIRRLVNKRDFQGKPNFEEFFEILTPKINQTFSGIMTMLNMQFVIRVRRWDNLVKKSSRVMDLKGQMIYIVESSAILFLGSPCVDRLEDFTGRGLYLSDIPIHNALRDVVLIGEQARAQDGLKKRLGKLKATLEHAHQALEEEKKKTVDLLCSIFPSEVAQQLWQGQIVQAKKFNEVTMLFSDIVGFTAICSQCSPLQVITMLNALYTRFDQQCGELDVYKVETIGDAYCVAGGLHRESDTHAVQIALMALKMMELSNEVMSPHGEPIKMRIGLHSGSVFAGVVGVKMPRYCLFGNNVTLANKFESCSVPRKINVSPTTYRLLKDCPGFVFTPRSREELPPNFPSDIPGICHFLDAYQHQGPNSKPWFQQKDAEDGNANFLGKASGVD

[4] = molecular target: T2, membrane guanylyl cyclase (guanylyl cyclase type B, GC-B) (Homo sapiens, UniProt P20594); experiment: CNP-induced cyclic GMP accumulation in BE-2(C) neuroblastoma cells
T2 sequence (P20594 23-1047): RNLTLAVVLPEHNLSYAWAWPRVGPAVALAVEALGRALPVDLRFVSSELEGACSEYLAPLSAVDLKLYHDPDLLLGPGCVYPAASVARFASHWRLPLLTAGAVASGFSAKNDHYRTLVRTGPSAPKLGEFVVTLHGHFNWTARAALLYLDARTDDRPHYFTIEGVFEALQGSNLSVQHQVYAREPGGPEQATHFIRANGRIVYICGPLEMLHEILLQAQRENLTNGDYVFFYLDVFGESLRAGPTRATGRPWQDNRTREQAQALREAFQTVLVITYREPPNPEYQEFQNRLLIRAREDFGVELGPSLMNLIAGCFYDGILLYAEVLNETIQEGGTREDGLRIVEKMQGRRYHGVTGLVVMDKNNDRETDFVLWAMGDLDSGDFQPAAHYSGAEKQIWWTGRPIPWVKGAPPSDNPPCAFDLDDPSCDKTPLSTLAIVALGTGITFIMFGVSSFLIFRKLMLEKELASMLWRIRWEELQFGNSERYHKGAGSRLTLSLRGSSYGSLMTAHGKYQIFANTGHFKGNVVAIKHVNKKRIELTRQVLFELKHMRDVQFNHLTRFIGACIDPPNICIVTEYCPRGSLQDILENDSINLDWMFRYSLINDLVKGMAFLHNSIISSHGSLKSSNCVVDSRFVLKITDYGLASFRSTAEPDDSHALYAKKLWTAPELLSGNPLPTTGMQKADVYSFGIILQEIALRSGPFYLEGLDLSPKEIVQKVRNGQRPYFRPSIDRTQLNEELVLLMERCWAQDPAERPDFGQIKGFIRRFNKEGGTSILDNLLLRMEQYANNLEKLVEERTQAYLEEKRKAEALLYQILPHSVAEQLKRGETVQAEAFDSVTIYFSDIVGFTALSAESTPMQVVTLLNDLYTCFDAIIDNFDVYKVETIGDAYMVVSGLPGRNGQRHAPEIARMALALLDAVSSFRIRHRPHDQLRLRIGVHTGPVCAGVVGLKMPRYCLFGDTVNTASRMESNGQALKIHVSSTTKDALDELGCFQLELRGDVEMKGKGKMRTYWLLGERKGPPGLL

T84 cells [5] = type: cell-based, human; details: 50 μM compound
[6] = test system: adenylyl cyclase or guanylyl cyclase; type: cell-based; details: read-out: typical IC50
adenylyl cyclase [7] = type: cell-based, human
adenylyl cyclase [8] = type: cell-based, human; remark: listed apart in the source

Sequence of anthrax edema toxin (protective antigen and edema factor) (P40136 whole entry, looked up): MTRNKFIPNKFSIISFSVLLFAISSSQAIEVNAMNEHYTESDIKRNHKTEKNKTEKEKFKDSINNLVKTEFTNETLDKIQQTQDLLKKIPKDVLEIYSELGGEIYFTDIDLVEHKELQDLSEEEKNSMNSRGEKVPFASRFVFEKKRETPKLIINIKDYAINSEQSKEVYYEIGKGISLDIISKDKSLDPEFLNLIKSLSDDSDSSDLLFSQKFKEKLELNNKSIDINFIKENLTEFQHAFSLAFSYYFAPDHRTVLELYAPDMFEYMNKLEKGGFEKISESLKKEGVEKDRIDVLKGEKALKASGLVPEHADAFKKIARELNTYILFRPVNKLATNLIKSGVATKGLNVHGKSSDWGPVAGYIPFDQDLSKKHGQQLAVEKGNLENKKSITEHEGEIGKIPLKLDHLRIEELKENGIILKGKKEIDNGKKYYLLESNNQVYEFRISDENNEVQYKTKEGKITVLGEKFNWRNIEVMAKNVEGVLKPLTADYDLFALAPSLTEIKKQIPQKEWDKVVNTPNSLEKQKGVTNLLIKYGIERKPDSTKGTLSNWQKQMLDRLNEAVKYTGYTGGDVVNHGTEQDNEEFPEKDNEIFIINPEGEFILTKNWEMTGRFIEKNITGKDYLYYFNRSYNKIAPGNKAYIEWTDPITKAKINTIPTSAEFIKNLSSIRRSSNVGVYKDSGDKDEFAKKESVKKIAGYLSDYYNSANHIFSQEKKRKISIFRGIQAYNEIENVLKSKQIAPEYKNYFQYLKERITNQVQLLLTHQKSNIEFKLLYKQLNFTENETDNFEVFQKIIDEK

With `Cn1c2c(c(=O)n(C)c1=O)C(c1cccc(Br)c1)C1=C(N2)c2ccccc2C1=O` (stereo not drawn) [compound IIb] the “STa-induced increase in chloride efflux” value (T84 cells [1]) was “significantly suppressed”, the “cyclic AMP accumulation” value [2] was 62.1±6.3 pmol/mg protein and the “decrease of cyclic AMP accumulation” value [2] was 55.2%. For the same compound, the “inhibition of cyclic GMP accumulation (FIG. 6)” value [3] was “inhibition”, the IC50 [4] was 11.2 µM and the “increase in chloride efflux induced by 8-bromo cyclic AMP or ionomycin” value (T84 cells [5]) was “not influenced”. The “increase in chloride efflux induced by isoproterenol, cholera toxin and forskolin” value (T84 cells [5]) was “significantly suppressed”, the “chloride anion efflux, increase in fluorescence of MQAE” value (T84 cells [5]; 50 μM forskolin, forskolin alone 2690, baseline 477) was 428 relative units in 10 min and the IC50 [6] was about 5 µM. For the same compound, the “amount of cyclic AMP accumulated” value (adenylyl cyclase [7]) was 1.2±0.1 nmol/mg protein, the “inhibition of cholera toxin-induced cyclic AMP” value (adenylyl cyclase [7]; T84 cells, cholera toxin 1 μg/ml, 50 μM compound) was 84.6% and the “inhibition of cyclic AMP accumulation” value (adenylyl cyclase [8]) was 41.3% and 58.2%.
